Laboratory results reported in US8969565B2, “Imidazo[1,2-b]pyridazine-based compounds, compositions comprising them, and methods of their use” (Lexicon Pharmaceuticals, Inc., priority 2012, dated 2015).

Target: T1, AAK1 (Homo sapiens, UniProt Q2M2I8)
T1 construct: HA; expressed in transfected cells; host or cells: HEK293F
Experiment: HEK281 cell-based assay (phospho-mu2 Western blot in transfected HEK293F cells)
Conditions: 3 hours incubation, read-out: CBA IC50
Summary of the method: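 After 3 hours at 37° C. with compound (five 3-fold-spaced concentrations, DMEM+0.5% FBS), transiently transfected HEK293F cells expressing full-length human AAK1 and Flag-tagged mu2 were lysed. mu2 phosphorylation was read by anti-phospho-mu2 immunoblot, normalized against total mu2 by anti-Flag blot.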

T1 sequence (Q2M2I8 1-863 isoform Q2M2I8-2): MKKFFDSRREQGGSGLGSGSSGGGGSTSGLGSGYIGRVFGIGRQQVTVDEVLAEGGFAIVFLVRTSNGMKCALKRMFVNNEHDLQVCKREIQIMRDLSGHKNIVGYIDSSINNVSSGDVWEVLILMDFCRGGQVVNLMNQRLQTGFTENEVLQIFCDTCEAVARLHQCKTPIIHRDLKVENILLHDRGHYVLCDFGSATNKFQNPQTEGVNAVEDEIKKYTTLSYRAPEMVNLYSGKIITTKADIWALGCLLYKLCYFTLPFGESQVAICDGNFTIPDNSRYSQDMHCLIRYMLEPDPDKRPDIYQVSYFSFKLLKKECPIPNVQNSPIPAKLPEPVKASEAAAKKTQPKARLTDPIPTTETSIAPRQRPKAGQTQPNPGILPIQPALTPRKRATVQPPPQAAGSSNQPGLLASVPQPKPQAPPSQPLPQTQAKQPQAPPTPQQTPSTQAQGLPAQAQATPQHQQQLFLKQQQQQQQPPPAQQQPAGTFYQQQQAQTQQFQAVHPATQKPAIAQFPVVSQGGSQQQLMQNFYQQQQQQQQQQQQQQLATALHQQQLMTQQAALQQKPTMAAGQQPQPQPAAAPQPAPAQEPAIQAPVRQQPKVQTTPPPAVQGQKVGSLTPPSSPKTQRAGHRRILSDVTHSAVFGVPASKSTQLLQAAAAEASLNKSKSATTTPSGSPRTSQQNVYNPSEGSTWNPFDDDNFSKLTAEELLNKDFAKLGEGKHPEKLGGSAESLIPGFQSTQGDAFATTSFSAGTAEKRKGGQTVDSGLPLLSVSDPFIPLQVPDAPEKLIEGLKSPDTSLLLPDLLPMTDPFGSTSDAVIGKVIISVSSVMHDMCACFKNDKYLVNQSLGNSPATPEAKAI

Row | Structure (SMILES) | IC50
1 | CNCCNC(=O)c1ccc(-c2cnc3ccc(NCCCN(C)C(=O)C(C)(C)C)nn23)cc1 [N-(2-(methylamino)ethyl)-4-(6-((3-(N-methylpivalamido)propyl)amino)imidazo[1,2-b]pyridazin-3-yl)benzamide] | ≤ 1000 nM
2 | COc1cnccc1-c1cnc2ccc(NCCOC(C)(C)C)nn12 [N-(2-(tert-butoxy)ethyl)-3-(3-methoxypyridin-4-yl)imidazo[1,2-b]pyridazin-6-amine] | ≤ 100 nM
3 | CC(C)(C)OCCNc1ccc2ncc(-c3ccc(C4CCCN4)cc3)n2n1 (stereo not drawn) [N-(2-(tert-butoxy)ethyl)-3-(4-(pyrrolidin-2-yl)phenyl)imidazo[1,2-b]pyridazin-6-amine] | ≤ 100 nM
4 | CC(C)(C)CCNc1ccc2ncc(-c3ccc(C(=O)NCCN)cc3)n2n1 [N-(2-aminoethyl)-4-(6-((3,3-dimethylbutyl)amino)imidazo[1,2-b]pyridazin-3-yl)benzamide] | ≤ 1000 nM
5 | CC(C)(C)OCCCNc1ccc2ncc(-c3ccc(C(=O)NCCN)cc3)n2n1 [N-(2-aminoethyl)-4-(6-((3-(tert-butoxy)propyl)amino)imidazo[1,2-b]pyridazin-3-yl)benzamide] | ≤ 1000 nM
6 | NCCNC(=O)c1ccc(-c2cnc3ccc(NCCCc4ccccc4)nn23)cc1 [N-(2-aminoethyl)-4-(6-((3-phenylpropyl)amino)imidazo[1,2-b]pyridazin-3-yl)benzamide] | ≤ 1000 nM
7 | CCCCNc1ccc2ncc(-c3ccc(C(=O)NCCN)c(F)c3)n2n1 [N-(2-aminoethyl)-4-(6-(butylamino)imidazo[1,2-b]pyridazin-3-yl)-2-fluorobenzamide] | ≤ 100 nM
8 | CCCCNc1ccc2ncc(-c3ccc(C(=O)NCCN)c(OC)c3)n2n1 [N-(2-aminoethyl)-4-(6-(butylamino)imidazo[1,2-b]pyridazin-3-yl)-2-methoxybenzamide] | ≤ 1000 nM
9 | CCCCNc1ccc2ncc(-c3ccc(C(=O)NCCN)cc3F)n2n1 [N-(2-aminoethyl)-4-(6-(butylamino)imidazo[1,2-b]pyridazin-3-yl)-3-fluorobenzamide] | ≤ 1000 nM
10 | CCCCNc1ccc2ncc(-c3ccc(C(=O)NCCN)cc3)n2n1 [N-(2-aminoethyl)-4-(6-(butylamino)imidazo[1,2-b]pyridazin-3-yl)benzamide] | ≤ 1000 nM
11 | CCCCNc1ccc2ncc(-c3ccc(C(=O)NCC(C)N)cc3)n2n1 (stereo not drawn) [N-(2-aminopropyl)-4-(6-(butylamino)imidazo[1,2-b]pyridazin-3-yl)benzamide] | ≤ 1000 nM
12 | CCOc1ccccc1CCNc1ccc2ncc(-c3ccncc3OC)n2n1 [N-(2-ethoxyphenethyl)-3-(3-methoxypyridin-4-yl)imidazo[1,2-b]pyridazin-6-amine] | ≤ 100 nM
13 | COc1ccccc1-c1cnc2ccc(NCCOCC(C)C)nn12 [N-(2-isobutoxyethyl)-3-(2-methoxyphenyl)imidazo[1,2-b]pyridazin-6-amine] | ≤ 1000 nM
14 | COc1cnccc1-c1cnc2ccc(NCCOCC(C)C)nn12 [N-(2-isobutoxyethyl)-3-(3-methoxypyridin-4-yl)imidazo[1,2-b]pyridazin-6-amine] | ≤ 100 nM
15 | CC(C)COCCNc1ccc2ncc(-c3ccncc3)n2n1 [N-(2-isobutoxyethyl)-3-(pyridin-4-yl)imidazo[1,2-b]pyridazin-6-amine] | ≤ 1000 nM
16 | CC(C)OCCNc1ccc2ncc(-c3cc[nH]n3)n2n1 [N-(2-isopropoxyethyl)-3-(1H-pyrazol-3-yl)imidazo[1,2-b]pyridazin-6-amine] | ≤ 1000 nM
17 | COc1cnccc1-c1cnc2ccc(NCCOC(C)C)nn12 [N-(2-isopropoxyethyl)-3-(3-methoxypyridin-4-yl)imidazo[1,2-b]pyridazin-6-amine] | ≤ 10 nM
18 | CC(C)OCCNc1ccc2ncc(-c3ccc(C4CCCN4)cc3)n2n1 (stereo not drawn) [N-(2-isopropoxyethyl)-3-(4-(pyrrolidin-2-yl)phenyl)imidazo[1,2-b]pyridazin-6-amine] | ≤ 100 nM
19 | CC(C)OCCNc1ccc2ncc(-c3ccns3)n2n1 [N-(2-isopropoxyethyl)-3-(isothiazol-5-yl)imidazo[1,2-b]pyridazin-6-amine] | ≤ 100 nM
20 | CC(C)OCCNc1ccc2ncc(-c3cscn3)n2n1 [N-(2-isopropoxyethyl)-3-(thiazol-4-yl)imidazo[1,2-b]pyridazin-6-amine] | ≤ 1000 nM
21 | CNCCOCc1ccc(-c2cnc3ccc(NCCC(C)(C)C)nn23)cc1 [N-(3,3-dimethylbutyl)-3-(4-((2-(methylamino)ethoxy)methyl)phenyl)imidazo[1,2-b]pyridazin-6-amine] | ≤ 100 nM
22 | CC(C)(C)CCNc1ccc2ncc(-c3ccc(C4CCCN4)cc3)n2n1 (stereo not drawn) [N-(3,3-dimethylbutyl)-3-(4-(pyrrolidin-2-yl)phenyl)imidazo[1,2-b]pyridazin-6-amine] | ≤ 1000 nM
23 | CN(CCCNc1ccc2ncc(-c3ccc(CN)cc3)n2n1)C(=O)C(C)(C)C [N-(3-((3-(4-(aminomethyl)phenyl)imidazo[1,2-b]pyridazin-6-yl)amino)propyl)-N-methylpivalamide] | ≤ 1000 nM
24 | COc1cnccc1-c1cnc2ccc(NCCCOC(C)(C)C)nn12 [N-(3-(tert-butoxy)propyl)-3-(3-methoxypyridin-4-yl)imidazo[1,2-b]pyridazin-6-amine] | ≤ 1000 nM

Row | Structure (SMILES) | IC50
25 | CCCCNc1ccc2ncc(-c3ccc(C(=O)NCCCN)cc3)n2n1 [N-(3-aminopropyl)-4-(6-(butylamino)imidazo[1,2-b]pyridazin-3-yl)benzamide] | ≤ 1000 nM
26 | FCCCNc1ccc2ncc(-c3ccc(C4CCCN4)cc3)n2n1 (stereo not drawn) [N-(3-fluoropropyl)-3-(4-(pyrrolidin-2-yl)phenyl)imidazo[1,2-b]pyridazin-6-amine] | ≤ 100 nM
27 | c1ccc(CCCNc2ccc3ncc(-c4ccc(C5CCCN5)cc4)n3n2)cc1 (stereo not drawn) [N-(3-phenylpropyl)-3-(4-(pyrrolidin-2-yl)phenyl)imidazo[1,2-b]pyridazin-6-amine] | ≤ 1000 nM
28 | CCCCNc1ccc2ncc(C(=O)Nc3ccc(OCCN)cc3)n2n1 [N-(4-(2-aminoethoxy)phenyl)-6-(butylamino)imidazo[1,2-b]pyridazine-3-carboxamide] | ≤ 1000 nM
29 | CCCCNc1ccc2ncc(C(=O)Nc3ccc(CN)cc3)n2n1 [N-(4-(aminomethyl)phenyl)-6-(butylamino)imidazo[1,2-b]pyridazine-3-carboxamide] | ≤ 1000 nM
30 | CCCCNc1ccc2ncc(-c3ccc(C(=O)N[C@@H]4CCCC[C@@H]4N)cc3)n2n1 [N-((1R,2S)-2-aminocyclohexyl)-4-(6-(butylamino)imidazo[1,2-b]pyridazin-3-yl)benzamide] | ≤ 100 nM
31 | COc1cnccc1-c1cnc2ccc(NCC3CCCC3)nn12 [N-(cyclopentylmethyl)-3-(3-methoxypyridin-4-yl)imidazo[1,2-b]pyridazin-6-amine] | ≤ 100 nM
32 | CCCCNc1ccc2ncc(-c3cc[nH]n3)n2n1 [N-butyl-3-(1H-pyrazol-3-yl)imidazo[1,2-b]pyridazin-6-amine] | ≤ 100 nM
33 | CCCCNc1ccc2ncc(-c3sc(C)nc3C)n2n1 [N-butyl-3-(2,4-dimethylthiazol-5-yl)imidazo[1,2-b]pyridazin-6-amine] | ≤ 100 nM
34 | CCCCNc1ccc2ncc(-c3ccncc3OC)n2n1 [N-butyl-3-(3-methoxypyridin-4-yl)imidazo[1,2-b]pyridazin-6-amine] | ≤ 100 nM
35 | CCCCNc1ccc2ncc(-c3ccc(CNCCOC)cc3)n2n1 [N-butyl-3-(4-(((2-methoxyethyl)amino)methyl)phenyl)imidazo[1,2-b]pyridazin-6-amine] | ≤ 1000 nM
36 | CCCCNc1ccc2ncc(-c3ccc(CNCC4CCCO4)cc3)n2n1 (stereo not drawn) [N-butyl-3-(4-((((tetrahydrofuran-2-yl)methyl)amino)methyl)phenyl)imidazo[1,2-b]pyridazin-6-amine] | ≤ 1000 nM
37 | CCCCNc1ccc2ncc(-c3ccc(CNCC4CC4)cc3)n2n1 [N-butyl-3-(4-(((cyclopropylmethyl)amino)methyl)phenyl)imidazo[1,2-b]pyridazin-6-amine] | ≤ 1000 nM
38 | CCCCNc1ccc2ncc(-c3ccc(CNC(C)C)cc3)n2n1 [N-butyl-3-(4-((isopropylamino)methyl)phenyl)imidazo[1,2-b]pyridazin-6-amine] | ≤ 1000 nM
39 | CCCCNc1ccc2ncc(-c3ccc(CNCCC)cc3)n2n1 [N-butyl-3-(4-((propylamino)methyl)phenyl)imidazo[1,2-b]pyridazin-6-amine] | ≤ 1000 nM
40 | CCCCNc1ccc2ncc(-c3ccc(CNC(C)(C)C)cc3F)n2n1 [N-butyl-3-(4-((tert-butylamino)methyl)-2-fluorophenyl)imidazo[1,2-b]pyridazin-6-amine] | ≤ 1000 nM
41 | CCCCNc1ccc2ncc(-c3ccc(CNC(C)(C)C)c(F)c3)n2n1 [N-butyl-3-(4-((tert-butylamino)methyl)-3-fluorophenyl)imidazo[1,2-b]pyridazin-6-amine] | ≤ 100 nM
42 | CCCCNc1ccc2ncc(-c3ccc(C4CCCN4)cc3)n2n1 (stereo not drawn) [N-butyl-3-(4-(pyrrolidin-2-yl)phenyl)imidazo[1,2-b]pyridazin-6-amine] | ≤ 1000 nM
43 | CCCCNc1ccc2ncc(-c3ccc4c(c3)CNC4)n2n1 [N-butyl-3-(isoindolin-5-yl)imidazo[1,2-b]pyridazin-6-amine] | ≤ 1000 nM
44 | COc1cnccc1-c1cnc2ccc(NCCC(C)C)nn12 [N-isopentyl-3-(3-methoxypyridin-4-yl)imidazo[1,2-b]pyridazin-6-amine] | ≤ 100 nM
45 | CNC(=O)c1ccc(-c2cnc3ccc(NCCc4ccccc4OC(F)(F)F)nn23)cc1 [N-methyl-4-(6-((2-(trifluoromethoxy)phenethyl)amino)imidazo[1,2-b]pyridazin-3-yl)benzamide] | ≤ 10 nM
46 | CCCCCNc1ccc2ncc(-c3ccc(C4CCCN4)cc3)n2n1 (stereo not drawn) [Pentyl-[3-(4-pyrrolidin-2-yl-phenyl)-imidazo[1,2-b]pyridazin-6-yl]-amine] | ≤ 1000 nM
47 | CCCCNc1nn2c(-c3ccc(CN)cc3)cnc2cc1C [[3-(4-Aminomethyl-phenyl)-7-methyl-imidazo[1,2-b]pyridazin-6-yl]-butyl-amine] | ≤ 100 nM
48 | NCc1ccc(-c2cnc3ccc(NCCCc4ccccc4)nn23)cc1 [[3-(4-Aminomethyl-phenyl)-imidazo[1,2-b]pyridazin-6-yl]-(3-phenyl-propyl)-amine] | ≤ 100 nM
